Molecular target: T1, SHP2 full-length protein (Homo sapiens, UniProt Q06124)
T1 construct: purchased BPS Bioscience #79330
T1 sequence (Q06124 1-593): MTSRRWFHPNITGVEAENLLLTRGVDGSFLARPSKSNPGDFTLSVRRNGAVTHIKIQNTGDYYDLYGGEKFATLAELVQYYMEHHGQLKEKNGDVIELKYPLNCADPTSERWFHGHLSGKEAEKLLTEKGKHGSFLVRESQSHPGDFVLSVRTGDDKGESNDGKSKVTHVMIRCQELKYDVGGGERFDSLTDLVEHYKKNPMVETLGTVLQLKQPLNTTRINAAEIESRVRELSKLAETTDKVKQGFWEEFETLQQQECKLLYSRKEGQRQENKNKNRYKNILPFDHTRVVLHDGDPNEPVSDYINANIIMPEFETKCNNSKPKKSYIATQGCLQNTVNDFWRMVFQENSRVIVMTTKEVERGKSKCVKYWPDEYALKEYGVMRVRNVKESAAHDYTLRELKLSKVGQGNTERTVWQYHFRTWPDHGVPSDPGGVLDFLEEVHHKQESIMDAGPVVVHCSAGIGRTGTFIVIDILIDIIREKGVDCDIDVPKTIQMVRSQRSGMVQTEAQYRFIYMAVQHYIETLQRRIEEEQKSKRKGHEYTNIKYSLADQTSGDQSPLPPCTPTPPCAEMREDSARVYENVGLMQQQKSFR
Assay: SHP2 allosteric inhibition experiment (Homogeneous Full Length SHP-2 Assay Kit)
Format: biochemical
Conditions: full-length SHP2 0.06 nM with SHP-2 activating peptide; ten-point, 1 μM to 0.05 nM; read-out: IC50 Values of Compounds Inhibiting SHP2
Source text: The following further describes and explains the present invention in combination with test examples, but these examples are not meant to limit the scope of the present invention. SHP2 allosteric inhibition experiment
The purpose of this test is to measure the ability of the compounds to inhibit the allosteric activity of the SHP2 full-length protein. Experimental equipment: a centrifuge (5810R) is purchased from Eppendorf Company; pipettes are purchased from Eppendorf Company and Rainin Company, and microplate readers are purchased from BioTek Company of the United States, SynergyH1 multimode microplate reader.
Experimental method: Homogeneous Full Length SHP-2 Assay Kit (BPS Bioscience, #79330) is used to detect SHP2 activity in vitro. First, add 18 μL of Master Mix to 96-well low-adsorption microplate (NUNC, #267342), that is, 0.5 μL of SHP-2 activating Peptide and 5 mM DTT are included in the reaction buffer with a final concentration of 1×. After centrifugation, add 5 μL of the compound to be tested in DMSO (final DMSO content is 1% (V/V) in each well: dissolve the compound to be tested in DMSO to 1 mM, conduct triple dilution with a total of 10 concentration levels ranging from 1 μM to 0.05 nM in the reaction buffer. After diluting SHP2 in 1× reaction buffer to a final concentration of 0.06 nM, add it to the reaction microwell plate, 2 μL per well. Set a full activity control ([…]) and a full inhibition control (without SHP-2) on the reaction plate, and incubate the reaction mixture at room temperature for 60 minutes after centrifugation.
After incubation, add 25 μL of Substrate solution to each well, containing Substrate with a final concentration of 10 μM and DTT with a final concentration of 5 mM, and after centrifugation, continue to incubate at room temperature for 30 minutes. After the reaction, set the excitation wavelength at 340 nm, the emission wavelength at 455 nm, and the gain value to 75 on the Synergy H1 microplate reader (Biotek) for reading.
Take the full activity control and full inhibition control as the values of Max and Min, and calculate the percentage inhibition rate of the wells treated with the compound based on the positive control wells (DMSO control wells) and negative control wells (no kinase added) on the reaction plate, (inhibition rate percentage=100−[(test compound−Min average value)/(Max average value−Min average value)]×100%. IC50 values of test compounds are calculated by fitting percentage of inhibition and ten-point concentration data to a 4-parameter nonlinear logic formula using GraphPad prism.

| Compound | IC50 [nM] |
| --- | --- |
| C[C@@H]1OCC2(CCN(c3ncc4nc(Sc5cccc(-c6ccn(C)n6)c5Cl)cnc4n3)CC2)[C@@H]1N [Compound 64, (3S,4S)-8-(6-((2-chloro-3-(1-methyl-1H-pyrazole-3-yl)phenyl)mercapto)pteridine-2-y 1)-3-methyl-2-oxa-8-azaspiro[4.5]decane-4-amine] | ≤ 10 |
| CCn1ccc(-c2cccc(Sc3ncc(N4CCC5(CC4)CO[C@@H](C)[C@H]5N)cn3)c2Cl)n1 [Compound 100, (3S,4S)-8-(2-((2-chloro-3-(1-ethyl-1H-pyrazole-3-yl)phenyl)mercapto)pyrimidine-5-yl)-3-methyl-2-oxa-8-azaspiro[4.5]decane-4-amine] | ≤ 10 |
| C[C@@H]1OCC2(CCN(c3cnc(Sc4cccc(-c5cncnc5)c4Cl)nc3)CC2)[C@@H]1N [Compound 103, (3S,4S)-8-(2-((2-chloro-3-(pyrimidine-5-yl)phenyl)mercapto)pyrimidine-5-yl)-3-methyl-2-oxa-8-azaspiro[4.5]decane-4-amine] | ≤ 10 |
| C[C@@H]1OCC2(CCN(c3nnc(Sc4cccc(NC(=O)c5c(O)nc6n(c5=O)CCCC6)c4Cl)nn3)CC2)[C@@H]1N [Compound 137, N-(3-((5-((3S,4S)-4-amino-3-methyl-2-oxa-8-azaspiro[4.5]decane-8-yl)s-tetrazine-3-yl)mercapto)-2-chlorophenyl)-2-hydroxy-4-oxa-6,7,8,9-tetrahydro-4H-pyridinyl[1,2-a]pyrimidine-3-carboxamide] | ≤ 10 |
| C[C@@H]1OCC2(CCN(c3cnc4nc(Sc5cccc(-c6ccn(C)n6)c5Cl)ccc4n3)CC2)[C@@H]1N [Compound 92, (3S,4S)-8-(6-((2-chloro-3-(1-methyl-1H-pyrazole-3-yl)phenyl)mercapto)pyridinyl[2,3-b]pyrazine-2-yl)-3-methyl-2-oxa-8-azaspiro[4.5]decane-4-amine] | ≤ 10 |
| CCn1ccc(-c2cccc(Sc3cnc(N4CCC5(CC4)CO[C@@H](C)[C@H]5N)nn3)c2Cl)n1 [Compound 131, (3S,4S)-8-(6-((2-chloro-3-(1-ethyl-1H-pyrazole-3-yl)phenyl)mercapto)-1,2,4-triazine-3-yl)-3-methyl-2-oxa-8-azaspiro[4.5]decane-4-amine] | ≤ 10 |
| C[C@@H]1OCC2(CCN(c3ncc4nc(Sc5cccc(Oc6ccn(C)n6)c5Cl)cnc4n3)CC2)[C@@H]1N [Compound 93] | ≤ 10 |
| C[C@@H]1OCC2(CCN(c3ncc4nc(Sc5cccc(-c6cnccn6)c5Cl)cnc4n3)CC2)[C@@H]1N [Compound 73, (3S,4S)-8-(6-((2-chloro-3-(pyrazine-2-yl)phenyl)mercapto)pteridine-2-yl)-3-methyl-2-oxa-8-azaspiro[4.5]decane-4-amine] | ≤ 10 |
| C[C@@H]1OCC2(CCN(c3ncc(Sc4cccc(-c5ccn(C)n5)c4Cl)cn3)CC2)[C@@H]1N [Compound 111, (3S,4S)-8-(5-((2-chloro-3-(1-methyl-1H-pyrazole-3-yl)phenyl)mercapto)pyrimidine-2-yl)-3-methyl-2-oxa-8-azaspiro[4.5]decane-4-amine] | 10 to 100 |
| CCn1ccc(-c2cccc(Sc3cnc4nc(N5CCC6(CC5)CO[C@@H](C)[C@H]6N)ncc4n3)c2Cl)n1 [Compound 67, (3S,4S)-8-(6-((2-chloro-3-(1-ethyl-1H-pyrazole-3-yl)phenyl)mercapto)pteridine-2-yl)-3-methylyl-2-oxa-8-azaspiro[4.5]decane-4-amine] | ≤ 10 |
| N[C@@H]1c2ccncc2CC12CCN(c1ccc3c(=O)n(-c4ccnc(NC5CC5)c4Cl)c(=O)[nH]c3n1)CC2 [Compound 28] | ≤ 10 |
| N[C@@H]1c2ccncc2CC12CCN(c1cnc3c(=O)n(-c4cccc(Cl)c4Cl)c(=O)[nH]c3n1)CC2 [Compound 15, (S)-7-(5-Amino-5,7-dihydrospiro [cyclopenta[c]pyridine-6,4′-piperidine]-1′-yl)-3-(2,3-dichlorophenyl)pteridine-2,4(1H,3H)-dione] | 10 to 100 |
| C[C@@H]1OCC2(CCN(c3cnc4nc(Sc5cccc(-c6cccnc6)c5Cl)ncc4n3)CC2)[C@@H]1N [Compound 78] | ≤ 10 |
